# Measured values taken from US12616698B2, “Methods for reducing liver fat and for treating fatty liver disorders” (Corcept Therapeutics Incorporated, priority 2021, dated 2026).
# Entries after “also recorded” stand apart in the source; their conditions may differ.
# Columns and labels:
# [1] = tested on: patients with presumed NASH; test: Example 6 study, dosing-regimen cohorts: liver fat content (MRI-PDFF) and markers; type: in vivo, human; settings: for Mean reduction in LFC: Week 6 (FIG. 10)
# Experimental: This study was a double-blind, multi-center, placebo-controlled, randomized 3-arm phase 2a study (NCT03823703) conducted to assess the safety and efficacy of miricorilant in reducing liver fat content (LFC) in patients with presumed NASH. Adult patients (18-75 years) with presumed NASH were randomized 1:1:1 to miricorilant 600 mg daily, miricorilant 900 mg daily, or placebo for 12 weeks. […] Abbreviations used in this Example and in the Figures include: ALP, alkaline phosphatase; ALT, alanine aminotransferase; AST, aspartate aminotransferase; ELF, enhanced liver fibrosis; LFC, liver fat content; NASH, non-alcoholic steatohepatitis; ULN, upper limit of normal; AUC, area under the concentration-time curve; Cmax, maximum concentration; EOT, end of treatment; GGT, gamma-glutamyltransferase; INR, international normalized ratio; MRI-PDFF, magnetic resonance imaging-proton density fat fraction; pt, patient; SD, standard deviation; ULN, upper limit of normal; Wk, week.
# Key inclusion criteria included that the patients be adults between 18-75 years old; be presumed to suffer from NASH with fibrosis; have LFC as measured by MRI-PDFF≥8%; have levels of AST<5×ULN and ALT<5×ULN; and have eGFR>60 mL/min/1.73 m^2. Primary endpoints included relative change in LFC from baseline by MRI-PDFF. Secondary endpoints included change from baseline in AST, ALT, GGT, and change from baseline in ELF score.
# Patients were divided into different cohorts and received different regimens of miricorilant. The cohorts included patients receiving 30 mg mircorilant once per day; patients receiving 50 mg mircorilant once per day; patients receiving 100 mg mircorilant once per day; patients receiving 150 mg mircorilant once per day; patients receiving 100 mg mircorilant on Mondays, Wednesdays, and Fridays; patients receiving 100 mg mircorilant on Mondays and Fridays; and patients receiving 200 mg mircorilant once per week. Patients receiving 100 mg mircorilant on Mondays and Fridays were termed “Cohort 6”.
# [2] = Example 6 study: pharmacokinetics; settings: human, in vivo, oral; one patient (FIG. 13)
structure (smiles),measurement,setting,value
"O=c1[nH]c(=O)c(Cc2cccc(C(F)(F)F)c2)c([C@H]2CC[C@H](c3ccccc3)CC2)[nH]1 [miricorilant, (E)-6-(4-Phenylcyclohexyl)-5-(3-trifluoromethylbenzyl)-1H-pyrimidine-2,4-dione]",Lipid levels (LDL and VLDL),"[1]; 100 mg twice per week, Mondays and Fridays (FIG. 16)",reductions
same,Glycemic markers,"[1]; 100 mg twice per week, Mondays and Fridays (FIG. 17)",reductions
same,Fibrosis markers,"[1]; 100 mg twice per week, Mondays and Fridays (FIG. 18)",reductions
same,LFC (MRI-PDFF) and liver enzyme levels (ALT and AST),"[1]; 100 mg twice per week, Mondays and Fridays, twelve weeks (FIG. 15)",reductions
same,Reduction in liver fat,"[1]; 100 mg twice weekly, over 12 weeks",−30%
same,LFC mean % change from baseline,"[1]; Cohort 6, miricorilant 100 mg twice weekly, week 12",−28.2%
same,LFC mean % change from baseline,"[1]; daily doses of miricorilant 50-150 mg, week 6",−22.3%
same,"Hepatic, lipid, and glycemic markers","[1]; miricorilant treatment, including 100 mg twice weekly",improvements; also recorded: improved
same,Weight loss,[1]; patients whose ALT and/or AST levels remain below 3 times normal,significant
same,Weight loss,[1]; patients whose ALT and/or AST levels rise above 3 times normal,even greater than for the other group
same,Slope of LFC decline,[1]; responders with ALT>3×ULN,−8.76
same,Slope of LFC decline,[1]; responders without ALT>3×ULN,−4.24
same,Mean reduction in LFC,[1]; treatment responders with ALT>3×ULN,−52.6%
same,Mean reduction in LFC,[1]; treatment responders without ALT>3×ULN,−25.5%
same,AUC,[2],5900 ng·h/mL
same,Cmax,[2],404 ng/mL
